Assay [1] addresses T1, Myotonin-protein kinase (Homo sapiens) (UniProt Q09013).
T1 sequence (whole entry): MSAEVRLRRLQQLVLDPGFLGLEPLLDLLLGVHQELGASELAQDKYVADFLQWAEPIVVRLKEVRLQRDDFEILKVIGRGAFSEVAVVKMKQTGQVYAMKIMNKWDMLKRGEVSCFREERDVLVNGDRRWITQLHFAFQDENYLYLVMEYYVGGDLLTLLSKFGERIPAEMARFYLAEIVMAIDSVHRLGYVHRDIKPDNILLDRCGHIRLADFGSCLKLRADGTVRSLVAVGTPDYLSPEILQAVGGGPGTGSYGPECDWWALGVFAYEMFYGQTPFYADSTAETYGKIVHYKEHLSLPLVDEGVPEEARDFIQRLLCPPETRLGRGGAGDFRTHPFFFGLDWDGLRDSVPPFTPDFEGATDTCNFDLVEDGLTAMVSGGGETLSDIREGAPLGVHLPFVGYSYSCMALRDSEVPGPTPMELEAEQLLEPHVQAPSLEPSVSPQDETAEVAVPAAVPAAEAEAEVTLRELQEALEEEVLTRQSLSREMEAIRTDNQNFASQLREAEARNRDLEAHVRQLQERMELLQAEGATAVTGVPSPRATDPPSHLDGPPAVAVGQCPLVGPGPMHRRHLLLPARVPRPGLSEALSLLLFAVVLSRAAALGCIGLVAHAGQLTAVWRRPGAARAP
Description: Selectivity interaction (KinomeScan (DiscoverX)) EUB0000607a DMPK. To be noted: at 10 µM.

For assay [2], the target named is T2, Mitogen-activated protein kinase kinase kinase 6 (Homo sapiens) (UniProt O95382).
T2 sequence (whole entry): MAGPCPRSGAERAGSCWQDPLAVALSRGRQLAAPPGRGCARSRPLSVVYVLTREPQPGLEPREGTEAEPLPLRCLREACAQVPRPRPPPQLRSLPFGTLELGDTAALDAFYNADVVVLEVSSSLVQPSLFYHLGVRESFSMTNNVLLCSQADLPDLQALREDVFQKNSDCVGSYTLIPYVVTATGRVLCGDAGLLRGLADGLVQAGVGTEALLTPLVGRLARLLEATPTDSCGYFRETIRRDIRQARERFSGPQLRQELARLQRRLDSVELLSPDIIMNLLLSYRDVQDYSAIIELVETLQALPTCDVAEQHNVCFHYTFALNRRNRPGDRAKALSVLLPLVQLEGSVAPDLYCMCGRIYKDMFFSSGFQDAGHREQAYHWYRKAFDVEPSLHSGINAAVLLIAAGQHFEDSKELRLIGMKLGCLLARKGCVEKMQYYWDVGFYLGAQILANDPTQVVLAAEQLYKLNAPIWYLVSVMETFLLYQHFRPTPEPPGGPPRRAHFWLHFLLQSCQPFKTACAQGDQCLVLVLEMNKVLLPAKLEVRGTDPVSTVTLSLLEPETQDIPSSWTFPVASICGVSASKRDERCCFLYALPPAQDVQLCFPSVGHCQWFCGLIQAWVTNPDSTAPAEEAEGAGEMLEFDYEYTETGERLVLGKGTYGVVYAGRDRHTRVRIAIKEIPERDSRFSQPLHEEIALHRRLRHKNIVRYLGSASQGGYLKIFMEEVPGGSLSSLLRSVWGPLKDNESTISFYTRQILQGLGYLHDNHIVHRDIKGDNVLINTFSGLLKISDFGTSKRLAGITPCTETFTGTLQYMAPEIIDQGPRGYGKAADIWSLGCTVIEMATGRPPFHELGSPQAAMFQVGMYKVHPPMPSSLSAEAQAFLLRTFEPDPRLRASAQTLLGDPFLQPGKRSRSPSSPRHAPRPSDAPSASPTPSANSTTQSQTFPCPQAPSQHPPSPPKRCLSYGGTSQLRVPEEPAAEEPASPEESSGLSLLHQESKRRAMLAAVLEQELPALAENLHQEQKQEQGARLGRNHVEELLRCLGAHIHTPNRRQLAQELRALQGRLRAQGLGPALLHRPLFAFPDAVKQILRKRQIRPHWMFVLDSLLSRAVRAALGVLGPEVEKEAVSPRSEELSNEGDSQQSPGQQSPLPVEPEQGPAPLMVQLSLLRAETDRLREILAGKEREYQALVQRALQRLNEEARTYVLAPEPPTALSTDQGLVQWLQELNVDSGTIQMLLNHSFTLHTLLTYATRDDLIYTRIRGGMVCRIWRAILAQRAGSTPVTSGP
Description: Selectivity interaction (ActivX KiNativ screen (kinase selectivity in THP-1 cell lysates)) EUB0000639a MAP3K6. The note with it: lysate, at 0.04 µM. Type of assay: subcellular.

The target in assay [3] is T3, Ephrin type-B receptor 3 (Homo sapiens) (UniProt P54753).
T3 sequence (whole entry): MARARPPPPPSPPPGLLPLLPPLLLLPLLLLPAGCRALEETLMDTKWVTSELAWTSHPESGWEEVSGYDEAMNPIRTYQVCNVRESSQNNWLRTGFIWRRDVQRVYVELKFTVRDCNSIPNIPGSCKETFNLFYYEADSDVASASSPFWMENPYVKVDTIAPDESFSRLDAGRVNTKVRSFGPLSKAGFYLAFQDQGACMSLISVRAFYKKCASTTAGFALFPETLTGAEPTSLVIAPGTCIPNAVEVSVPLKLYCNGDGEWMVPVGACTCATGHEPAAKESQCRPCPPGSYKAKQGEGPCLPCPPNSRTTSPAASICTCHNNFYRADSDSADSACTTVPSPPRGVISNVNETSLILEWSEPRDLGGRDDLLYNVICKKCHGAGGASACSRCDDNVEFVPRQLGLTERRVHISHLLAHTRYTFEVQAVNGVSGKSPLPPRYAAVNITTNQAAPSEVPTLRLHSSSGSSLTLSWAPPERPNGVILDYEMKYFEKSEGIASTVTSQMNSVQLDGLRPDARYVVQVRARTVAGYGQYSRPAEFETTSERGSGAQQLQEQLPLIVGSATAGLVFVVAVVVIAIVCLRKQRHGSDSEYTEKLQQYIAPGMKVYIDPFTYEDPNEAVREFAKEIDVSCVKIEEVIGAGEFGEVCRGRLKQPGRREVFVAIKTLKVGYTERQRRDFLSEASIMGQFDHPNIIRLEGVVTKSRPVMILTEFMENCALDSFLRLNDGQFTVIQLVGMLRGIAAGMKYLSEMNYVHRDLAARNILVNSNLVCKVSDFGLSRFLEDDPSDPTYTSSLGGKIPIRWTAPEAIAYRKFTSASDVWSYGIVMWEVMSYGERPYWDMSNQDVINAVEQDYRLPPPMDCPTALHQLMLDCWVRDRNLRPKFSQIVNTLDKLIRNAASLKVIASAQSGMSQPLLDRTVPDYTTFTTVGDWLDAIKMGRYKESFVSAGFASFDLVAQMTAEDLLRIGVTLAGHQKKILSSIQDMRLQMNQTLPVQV
Description: Selectivity interaction (Kinase panel (DSF assay)) EUB0001559a EPHB3. Background: Differential scanning fluorimetry follows unfolding on heating by fluorescence.

In assay [4] the target is Phosphatidylinositol 4-kinase beta (Homo sapiens, UniProt Q9UBF8). Description: Selectivity interaction (ActivX KiNativ screen (ex vivo kinase selectivity in human PBMCs)) EUB0001619a PI4KB. It is filed as cell-based. The note with it: PBMC, at 1 µM.
Phosphatidylinositol 4-kinase beta, sequence (Q9UBF8 2-816 limits assumed): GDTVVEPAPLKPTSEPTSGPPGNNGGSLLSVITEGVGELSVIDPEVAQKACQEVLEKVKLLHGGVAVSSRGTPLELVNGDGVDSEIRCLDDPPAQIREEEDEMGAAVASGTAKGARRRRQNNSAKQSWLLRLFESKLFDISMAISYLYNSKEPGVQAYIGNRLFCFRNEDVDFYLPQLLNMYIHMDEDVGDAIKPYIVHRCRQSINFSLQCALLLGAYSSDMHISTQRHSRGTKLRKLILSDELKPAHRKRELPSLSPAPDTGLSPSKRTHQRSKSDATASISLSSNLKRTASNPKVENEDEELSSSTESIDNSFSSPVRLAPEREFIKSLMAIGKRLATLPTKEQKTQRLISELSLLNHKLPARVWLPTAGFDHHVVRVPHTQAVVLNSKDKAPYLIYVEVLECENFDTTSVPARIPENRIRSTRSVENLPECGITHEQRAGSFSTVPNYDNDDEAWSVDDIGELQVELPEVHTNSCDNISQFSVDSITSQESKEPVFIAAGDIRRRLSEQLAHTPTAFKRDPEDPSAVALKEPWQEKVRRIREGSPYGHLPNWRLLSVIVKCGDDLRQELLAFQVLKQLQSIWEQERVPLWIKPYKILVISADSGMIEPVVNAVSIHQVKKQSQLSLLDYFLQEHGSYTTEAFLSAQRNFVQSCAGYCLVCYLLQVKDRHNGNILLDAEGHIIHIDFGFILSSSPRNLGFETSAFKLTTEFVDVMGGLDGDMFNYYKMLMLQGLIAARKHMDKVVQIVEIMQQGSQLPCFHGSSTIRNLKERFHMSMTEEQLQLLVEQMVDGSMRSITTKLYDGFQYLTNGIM

This passage reports % of control, % of inhibition and dTM results from ChEMBL document CHEMBL5465560, “Selectivity Literature for EUbOPEN Chemogenomic Library” (2024).

Molecule `CNC(=O)Nc1ccc(-c2nc(N3CC4CCC(C3)O4)c3cnn(C4CCC5(CC4)OCCO5)c3n2)cc1` yielded a % of control in assay [1] of 83%.
Take `CC[C@@H]1[C@H](F)C(=O)N[C@@H]1COc1nccc2cc(C(N)=O)c(OC)cc12` [ZIMLOVISERTIB]: the % of inhibition in assay [2] came out at 3.6%.
The molecule `CN(C(=O)c1cnn2cccnc12)c1cc2c(cc1N1CCOCC1)C(=O)N(C[C@@H](F)C(C)(C)O)C2` came in with a dTM in assay [3] of 0 K.
For `N#Cc1cccc(-c2c[nH]c3ncnc(N4CCOCC4)c23)c1`, the % of inhibition in assay [4] is -27%.
